Experimental findings from patent publication US20250295732A1, “COMPOSITIONS AND METHODS FOR ACTIVATING INNATE IMMUNITY” (Zoetis Services LLC, priority 2021, published 2025) are described below.

This assay relates to bovine monocyte-derived macrophages. In words: LPS-induced cytokine response of CATH2-trained monocyte-derived macrophages (U-Plex MSD). The conditions noted are these: CATH2 24 hr, removal, 3-day rest, LPS 1 μg/mL 24 hours; vs vehicle. In kind it is cell-based. An excerpt: Peripheral blood mononuclear cells (PBMC) were isolated from bovine blood using ficoll gradients. Bovine monocytes were isolated from PBMC using magnetic assisted cell sorting to positively select for CD14+ cells using anti-human CD14 microbeads (Miltenyi Biotec). Purified bovine blood CD14+ monocytes were differentiated into macrophages using an M2-skewing differentiation factor (recombinant bovine M-CSF) over 7 days then exposed to CATH2 or a vehicle control in the presence of bovine casein to mimic aspects of the mammary gland for 24 hr. […] Following the rest period, a subset of vehicle- and CATH2-trained monocyte-derived macrophages were assessed for epigenetic and transcriptomic changes. The remaining cells were challenged with LPS or E. coli bioparticle labeled with pH-sensitive pHrodo green dye and key parameters for macrophage activation/immune response were assessed including glycolytic activity, surface marker expression, gene expression, cytokine production, phagocytosis, reactive nitrogen species production, and miRNA profiling.
Cytokine levels in cell culture supernatant (IL-8/CXCL8, IL-6, TNFα, IL-1β, IL-10, IL-12p40) were quantified using customized U-Plex assays (MesoScale Diagnostics, LLC). […] Raw data were analyzed using MSD DISCOVERY BENCHWORK.

For the sequence “RFGRFLRKIRRFRPKVTITIQGSARFG [CATH2, cathelicidin 2 peptide]”, the “LPS-induced cytokine production (IL-12p40, IL-6, TNFα, IL-8, IL-1β, IL-10)” value is “enhanced production of both pro- and anti-inflammatory cytokines/chemokines”.
